One series has as its system E. coli ATCC 35218. Type of series: cell-based. Particulars: ATCC 35218.
Another series can be described thus: MTS assay, NIH 3T3 cells. Type of series: cell-based, mouse. Conditions: mouse, NIH 3T3 fibroblast cells. Summed up: (§1)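 NIH/3T3 cells seeded at 5,000 per well, grown a day in DMEM with 10% FBS, then washed and exposed to serially diluted peptoid in HBSS together with MTS reagent. Absorbance at 490 nm read after 3 hours at 37 °C as a measure of metabolic activity; mean of six replicates.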
On the technique in general: Formazan colour is commonly taken as a measure of viable cells.

For series [1], the system named is NIH 3T3 mouse fibroblast cells. Description: MTS assay, NIH 3T3 cells. Type of series: cell-based. Summed up: as §1
The subject of series [2] is Enterobacter aerogenes ATCC 35029. Type of series: cell-based. Conditions: ATCC 35029. As for the experimental part: (§2) Antibacterial assays. MICs were determined according to CLSI M7-A6 protocols in a 96-well microtiter plate. In test wells, 50 uL bacterial inoculum (5×10^5 CFU/ml) in Mueller-Hinton broth (MHB) was added to 50 μL peptoid solution in MHB (prepared by 1:2 serial dilutions). Positive controls contained 50 μL inoculum and 50 μL MHB without peptoid. […] MIC values reported were reproducible between three independent experimental replicates, each consisting of two parallel trials. Broad-spectrum antimicrobial susceptibility testing was performed against BSL2 pathogens by Nova Biologicals, Inc. (Conroe, Tex.).
(§3) Broad-spectrum antibacterial assays. MICs of compounds were determined by microdilution procedure in Mueller-Hinton broth (MHB) in accordance with CLSI M7-A6 protocols in a manner similar to that described for the screen antibacterial assays. Inoculated microtiter plates were incubated at 35° C. for 24 hours prior to the result being recorded. Four ATCC strains that were used as standards are recommended by CLSI: Pseudomonas aeruginosa ATCC 27853, Escherichia coli ATCC 25922, Staphylococcus aureus ATCC 29213 and Enterococcus faecalis ATCC 29212. Other strains from the ATCC collection include Proteus vulgaris ATCC 49132, Proteus mirabilis ATCC 35659, Klebsiella pneumoniae ATCC 33495, Enterobacter aerogenes ATCC 35029 and Serratia marcescens ATCC 13880. S. aureus NRS100 (COL) is a well characterized methicillian-resistant S. aureus (MRSA) strain. The strains S. aureus VAN1 and S. aureus VAN2, vancomycin-resistant MRSA strains that were isolated in Michigan and Pennsylvania, were the first vancomycin-resistant strains clinically isolated. S. aureus NRS 119 and S. aureus NRS 120 are linezolid-resistant isolates from the Network on Antimicrobial Resistance in S. aureus (NARSA) collection. E. faecalis 99 and E. faecium 106 are vancomycin-resistant enterococcal strains.

The test system of the next series is Enterococcus faecalis 99. Type of series: cell-based. Conditions: 99. As for the experimental part:
as §2, §3

The test system of series [3] is Enterococcus faecalis ATCC 29212. Type of series: cell-based. Particulars: ATCC 29212. The procedure: as §2, §3
The next series concerns Enterococcus faecium 106. Type of series: cell-based. Conditions: 106. The procedure: as §2, §3
Series [4] deals with Escherichia coli ATCC 25922. Type of series: cell-based. Conditions: ATCC 25922. As for the experimental part: as §2, §3
Series [5] concerns Klebsiella pneumoniae ATCC 33495. Type of series: cell-based. Conditions: ATCC 33495. The procedure:
as §2, §3

The subject of series [6] is Proteus vulgaris ATCC 49132. Type of series: cell-based. Conditions: ATCC 49132. As for the experimental part:
as §2, §3

Series [7] concerns Pseudomonas aeruginosa ATCC 27853. Type of series: cell-based. Conditions: ATCC 27853. The procedure:
as §2, §3

Series [8] has as its system Staphylococcus aureus ATCC 29213. Type of series: cell-based. Particulars: ATCC 29213. The procedure:
as §2, §3

The subject of series [9] is Staphylococcus aureus NRS100 (COL). It is filed as cell-based. Particulars: NRS100 (COL). The procedure: as §2, §3
Series [10] has as its system Staphylococcus aureus NRS119. Type of series: cell-based. Particulars: NRS119. The procedure:
as §2, §3

Series [11] has as its system Staphylococcus aureus NRS120. It is filed as cell-based. Particulars: NRS120. As for the experimental part: as §2, §3
Series [12] relates to Staphylococcus aureus VAN1. It is filed as cell-based. Conditions: VAN1. As for the experimental part:
as §2, §3

Series [13] concerns Staphylococcus aureus VAN2. It is filed as cell-based. Conditions: VAN2. As for the experimental part:
as §2, §3

The test system of the next series is human erythrocytes. The series can be described thus: Hemolysis assay. Type of series: cell-based. Summed up: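 Peptoid dilution series (1:2 in PBS) combined with equal volume of 20 vol % human red cells from heparinised blood, 37 °C for 1 h. Released hemoglobin measured as supernatant absorbance at 350 nm post-centrifugation, scaled between PBS-only wells and 0.2 vol % Triton X-100 total lysis.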

For series [14], the system named is A549 lung epithelial cells. The series can be described thus: MTS assay, A549 cells. The procedure:
The biocompatibility of selected oligomers with A549 lung epithelial cells was evaluated using the MTS [3-(4,5-dimethylthiazol-2-yl)-5-(3-carboxymethoxyphenyl)-2-(4-sulfophenyl)-2H-tetrazolium] assay.
MTS Assays. A549 carcinoma-derived lung epithelial cells (ATTC CCL-185) were cultured in Ham's F12K media (ATTC, Manassas, Va.). A peptoid solution plate (100 μL/well) was prepared by serial dilution of aqueous peptoid stocks in media. Peptoid solutions were transferred onto a 96-well plate of day-old cell monolayers containing 100 μL/well media with 5000 cells/well. MTS reagent (Promega Corporation, Madison, Wis.) (40 μL/well) was added to each well and the plate was incubated at 37° C. for 3 h, after which absorbance at 490 nm was determined. Percent inhibition was determined as [1−(A−Atest blank)/(Acontrol−Ablank)]×100, where A is the absorbance of the test well and Acontrol the average absorbance of wells with cells exposed to media and MTS (no peptoid). Atest blank (media, MTS, and peptoid) and Ablank (media and MTS) were background absorbances measured in the absence of cells. The average of six replicates are reported, and error bars show one standard deviation.

Another series deals with B. subtilis ATCC 6633. Type of series: cell-based. Conditions: ATCC 6633. Summed up: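 Broth microdilution MICs per CLSI M7-A6 in cation-adjusted Mueller-Hinton broth, using 1×10^6 CFU/mL inoculum added 1:1 to twofold serial peptoid dilutions. Values reproducible across three independent experiments, each with two parallel trials.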
The subject of the next series is E. coli JM109. It is filed as cell-based. Particulars: Table 1; SR = (HD10)/(E. coli MIC). From the text: An initial set of 15 ampetoid analogs was synthesized to determine whether peptoids are affected by structural and sequence modifications in a manner consistent with AMP activities. The designs for ampetoids in this library were derived from two antibacterial and selective amphipathic dodecamers, 1 and 2. Peptoid 1 [H-(Nlys-Nspe-Nspe)4-NH2] is composed of 2/3 Nspe, the peptoid analog of phenylalanine, and 1/3 Mys, the peptoid analog of lysine (see FIG. 1 for the structures of representative peptoid monomers and corresponding N-substituents). Peptoid 2 [H-(Mys-Nssb-Nspe)4-NH2] contains 1/3 isoleucine-like Nssb monomers in place of Nspe. The variant sequences were designed to effect changes in chirality, length, hydrophobicity, charge, and amphipathicity. All of these compounds were tested for antibacterial activity against representative BSL1 Gram-negative (E. coli JM109) and Gram-positive (B. subtilis BR151) bacterial strains. As an initial measure of selectivity, the lytic activity of the peptoids was determined against human erythrocytes. Table 1 summarizes the sequences synthesized, the solvent composition at RP-HPLC elution as a relative measure of molecular hydrophobicity, and antibacterial and hemolytic activities.
Antibacterial assays. MICs were determined according to CLSI M7-A6 protocols in a 96-well microtiter plate. […]

Usually CC50 stands for the concentration that lowers cell viability or growth by half. Read a high CC50 as lower toxicity to the cells. The MIC is the lowest concentration that inhibits growth of the organism. High values mean weaker potency, low ones greater potency.

Values after ≈ are worked out from the molar mass of the structure shown. Numbered stars: 1 amine (or outer) side, 2 acyl side, 3 side chain; on linkers, the order of the positions; unused ones are H or OH. Square brackets hold non-standard residues; d marks the D form. Peptide text beside a SMILES is read from it. X2 = CCC[C@H](C)N(CC(=O)[*:2])[*:1]; Nspe = C[C@H](NCC(=O)O)c1ccccc1; Nphe = O=C(O)CNCc1ccccc1; Nlys = NCCCCNCC(=O)O

Regarding `C[C@@H](c1ccccc1)N(CC(N)=O)C(=O)CN(Cc1ccccc1)C(=O)CN(CCCCN)C(=O)CN(C(=O)CN(Cc1ccccc1)C(=O)CN(CCCCN)C(=O)CN(C(=O)CN(Cc1ccccc1)C(=O)CN(CCCCN)C(=O)CN(C(=O)CN(Cc1ccccc1)C(=O)CNCCCCN)[C@@H](C)c1ccccc1)[C@@H](C)c1ccccc1)[C@@H](C)c1ccccc1` [1-Npm2,5,8,11, H-(Nlys-Npm-Nspe)4-NH2] (H-[Nlys][Nphe][Nspe][Nlys][Nphe][Nspe][Nlys][Nphe][Nspe][Nlys][Nphe][Nspe]-NH2), in the series with E. coli ATCC 35218, the “E. coli MIC” value worked out at 6.3 µM. Moreover, the 50% cytotoxic concentration (CC50) at 3 h in the series “MTS assay, NIH 3T3 cells” amounted to 6.8 µM. Further, in [1], the ID50 turned out to be 6.8 µM. Besides, the MIC in series [2] is 64 µg/mL (≈ 36.3 µM); in the series on Enterococcus faecalis 99 it was 64 µg/mL (≈ 36.3 µM); in series [3], 8 µg/mL (≈ 4.54 µM); in the series with Enterococcus faecium 106 it was 4 µg/mL (≈ 2.27 µM); in series [4], 8 µg/mL (≈ 4.54 µM); in [5], 16 µg/mL (≈ 9.07 µM). Also, the minimal inhibitory concentration (MIC) in series [6] is 64 µg/mL (≈ 36.3 µM); in series [7], 64 µg/mL (≈ 36.3 µM); in series [8], 8 µg/mL (≈ 4.54 µM); in [9] it was 8 µg/mL (≈ 4.54 µM); in series [10], 16 µg/mL (≈ 9.07 µM); in [11], 16 µg/mL (≈ 9.07 µM). The MIC in series [12] and in series [13] was 8 µg/mL (≈ 4.54 µM) in each case.

For `C[C@@H](c1ccccc1)N(CC(N)=O)C(=O)CN(C(=O)CN(CCCCN)C(=O)CN(C(=O)CN(C(=O)CN(CCCCN)C(=O)[C@@H]1CCCN1C(=O)CN(C(=O)CN(CCCCN)C(=O)CN(C(=O)CN(C(=O)CNCCCCN)[C@@H](C)c1ccccc1)[C@@H](C)c1ccccc1)[C@@H](C)c1ccccc1)[C@@H](C)c1ccccc1)[C@@H](C)c1ccccc1)[C@@H](C)c1ccccc1` [1-Pro6, H-Nlys-Nspe-Nspe-Nlys-Nspe-L-Pro-(Nlys-Nspe-Nspe)2-NH2] (H-[Nlys][Nspe][Nspe][Nlys][Nspe]P[Nlys][Nspe][Nspe][Nlys][Nspe][Nspe]-NH2), in the series with human erythrocytes, the HD10 worked out at 83 µM and the HD50 was more than 200 µM. Also, the “ID10 relative to that of pexiganan” value in series [14] is reported as 10 times. Moreover, the “MIC for B. subtilis ATCC 6633” value in the series with B. subtilis ATCC 6633 came to 1.6 µM. For the same compound, in the series on E. coli ATCC 35218, the “E. coli MIC” value is 12.5 µM and the “MIC for E. coli ATCC 35218” value was 12.5 µM. In “MTS assay, NIH 3T3 cells”, this compound registered a CC50 at 3 h of 18 µM.

`CCC[C@H](C)N(CC(=O)N(CC(N)=O)[C@@H](C)c1ccccc1)C(=O)CN(CCCCN)C(=O)CN(C(=O)CN(C(=O)CN(CCCCN)C(=O)CN(C(=O)CN(C(=O)CN(CCCCN)C(=O)CN(C(=O)CN(C(=O)CNCCCCN)[C@@H](C)CCC)[C@@H](C)c1ccccc1)[C@@H](C)CCC)[C@@H](C)c1ccccc1)[C@@H](C)CCC)[C@@H](C)c1ccccc1` [2-Nsap2,5,8,11, H-(Nlys-Nsap-Nspe)4-NH2] (H-[Nlys][X2][Nspe][Nlys][X2][Nspe][Nlys][X2][Nspe][Nlys][X2][Nspe]-NH2): the “Selectivity ratio (SR)” value in the series on E. coli JM109 is on record as more than 16.

For `C[C@@H](c1ccccc1)N(CC(N)=O)C(=O)CN(C(=O)CN(CCCCN)C(=O)CN(C(=O)CN(C(=O)CN(CCCCN)C(=O)CN(C(=O)CN(C(=O)CN(CCCCN)C(=O)CN(C(=O)CN(C(=O)CN(CCCCN)C(=O)CN(C(=O)CN(C(=O)CNCCCCN)[C@@H](C)c1ccccc1)[C@@H](C)c1ccccc1)[C@@H](C)c1ccccc1)[C@@H](C)c1ccccc1)[C@@H](C)c1ccccc1)[C@@H](C)c1ccccc1)[C@@H](C)c1ccccc1)[C@@H](C)c1ccccc1)[C@@H](C)c1ccccc1` [115 mer, H-(Nlys-Nspe-Nspe)5-NH2], the “cytotoxicity (in words)” value in [14] (A549 lung epithelial cells, MTS, FIG. 2) is “no worse than pexiganan”.

The values are drawn from patent US20120295838A1, “Selective poly-substituted glycine antibiotics and related compositions” (priority 2008, published 2012).
